pEC50: −log10 of the molar value.
What was measured:
Format in all cases: cell-based
OR10J1(M51I, I92M) = biological target: T1, OR10J1(M51I, I92M) (Homo sapiens, UniProt P30954, I103M/M62I); assay: Dose-response test of single lactones on OR10J1(M51I, I92M)
T1 construct: expressed in transfected cells; transient transfection of pcDNA3.1(+) OR plasmid
T1 sequence (P30954 with tags, fused parts or gaps M62I/I103M): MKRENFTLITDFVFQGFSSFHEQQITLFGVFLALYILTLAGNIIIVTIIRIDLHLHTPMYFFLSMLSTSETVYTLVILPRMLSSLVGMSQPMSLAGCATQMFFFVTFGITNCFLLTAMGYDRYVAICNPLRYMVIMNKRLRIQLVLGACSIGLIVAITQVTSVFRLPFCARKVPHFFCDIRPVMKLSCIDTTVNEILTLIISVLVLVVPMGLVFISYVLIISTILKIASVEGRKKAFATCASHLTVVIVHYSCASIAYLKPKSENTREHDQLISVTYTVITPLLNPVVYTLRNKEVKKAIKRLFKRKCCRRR
Protocol: (§1) In a subsequent de-convultion experiment, the single ingredients were tested in a dose-response test on all the identified OR. […] Thus, OR2AP1 and OR2J2 are particularly strongly activated by the long-chain dodecalactone gamma, while OR10A3 is very sensitive to several longer chain lactones. […] Among the five OR, OR10A3 is the most sensitive.

OR10A3 = biological target: T2, OR10A3 (Homo sapiens, UniProt P58181); assay: Dose-response test of single lactones on OR10A3 (luciferase)
T2 construct: Class II OR library members with modified C-terminal domains; expressed in transfected cells
T2 sequence (P58181 with tags, fused parts or gaps): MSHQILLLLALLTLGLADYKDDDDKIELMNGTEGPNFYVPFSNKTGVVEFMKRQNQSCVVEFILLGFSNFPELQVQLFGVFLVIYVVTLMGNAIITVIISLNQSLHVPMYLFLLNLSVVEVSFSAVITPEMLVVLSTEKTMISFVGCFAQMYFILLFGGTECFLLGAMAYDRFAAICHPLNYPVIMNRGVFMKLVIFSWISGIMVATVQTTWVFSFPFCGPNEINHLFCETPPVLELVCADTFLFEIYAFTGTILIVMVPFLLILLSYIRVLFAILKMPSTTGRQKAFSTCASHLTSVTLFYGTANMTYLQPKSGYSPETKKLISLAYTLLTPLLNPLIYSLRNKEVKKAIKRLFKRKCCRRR
Protocol: as §1

[1] = biological target: T3, OR10A6(A117V, V140G, L287P) (Homo sapiens, UniProt Q8NH74, A117V/L287P/V140G); assay: Dose-response test of single lactones on OR10A6(A117V, V140G, L287P)
T3 construct: expressed in transfected cells; transient transfection of pcDNA3.1(+) OR plasmid
T3 sequence (Q8NH74 with tags, fused parts or gaps A117V/V140G/L287P limits assumed): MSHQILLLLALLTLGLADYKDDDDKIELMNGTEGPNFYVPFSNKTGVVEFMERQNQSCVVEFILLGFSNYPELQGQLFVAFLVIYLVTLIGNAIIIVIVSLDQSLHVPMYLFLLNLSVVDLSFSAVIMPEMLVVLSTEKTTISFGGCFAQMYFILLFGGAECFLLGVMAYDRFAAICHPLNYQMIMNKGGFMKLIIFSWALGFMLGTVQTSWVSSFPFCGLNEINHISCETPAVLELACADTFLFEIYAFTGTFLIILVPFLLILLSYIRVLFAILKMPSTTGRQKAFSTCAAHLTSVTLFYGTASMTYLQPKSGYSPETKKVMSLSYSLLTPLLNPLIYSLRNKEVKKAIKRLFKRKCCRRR
Protocol: as §1

OR2J2 = biological target: T4, OR2J2 (Homo sapiens, UniProt O76002, A146V/A218T/A302I/G300K/H297E/H74Y); assay: Dose-response test of single lactones on OR2J2
T4 construct: expressed in transfected cells; transient transfection of pcDNA3.1(+) OR plasmid
T4 sequence (O76002 with tags, fused parts or gaps H74Y/A146V/A218T/H297E/G300K/A302I limits assumed): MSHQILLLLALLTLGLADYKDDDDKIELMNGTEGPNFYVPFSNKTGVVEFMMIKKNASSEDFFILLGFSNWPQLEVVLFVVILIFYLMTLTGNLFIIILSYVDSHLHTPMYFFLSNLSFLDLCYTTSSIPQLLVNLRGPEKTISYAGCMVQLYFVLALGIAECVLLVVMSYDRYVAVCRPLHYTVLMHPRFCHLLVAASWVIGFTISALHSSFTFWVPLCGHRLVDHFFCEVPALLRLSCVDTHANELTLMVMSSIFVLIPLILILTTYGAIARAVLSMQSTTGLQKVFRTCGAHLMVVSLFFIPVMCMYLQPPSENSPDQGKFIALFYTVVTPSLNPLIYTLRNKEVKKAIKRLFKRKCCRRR
Protocol: as §1

OR2AP1 = biological target: T5, OR2AP1 (Homo sapiens, UniProt Q8NGE2); assay: Dose-response test of single lactones on OR2AP1
T5 construct: expressed in transfected cells; transient transfection of pcDNA3.1(+) OR plasmid
T5 sequence (Q8NGE2 with tags, fused parts or gaps limits assumed): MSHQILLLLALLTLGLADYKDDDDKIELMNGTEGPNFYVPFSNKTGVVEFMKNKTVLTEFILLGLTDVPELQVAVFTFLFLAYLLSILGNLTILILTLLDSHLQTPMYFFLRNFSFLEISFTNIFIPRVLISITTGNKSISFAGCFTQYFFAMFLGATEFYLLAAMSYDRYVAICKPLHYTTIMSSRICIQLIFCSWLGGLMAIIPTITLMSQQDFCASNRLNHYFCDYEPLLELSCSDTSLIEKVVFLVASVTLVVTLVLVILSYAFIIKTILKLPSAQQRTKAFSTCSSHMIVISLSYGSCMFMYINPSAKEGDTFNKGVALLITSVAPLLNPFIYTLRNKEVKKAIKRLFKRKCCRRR
Protocol: as §1

OR56A4 = biological target: T6, OR56A4 (Homo sapiens, UniProt Q8NGH8, T299N); assay: cell-based; conditions: for activation of the wild-type: wild-type OR56A4
T6 construct: Improved functional expression of modified OR-genes containing the truncated, optimized C-terminus; expressed in transfected cells; host or cells: HEK293T stably expressing human RTP1S(V227I) and RTP2(L220R)
T6 sequence (Q8NGH8 with tags, fused parts or gaps T299N): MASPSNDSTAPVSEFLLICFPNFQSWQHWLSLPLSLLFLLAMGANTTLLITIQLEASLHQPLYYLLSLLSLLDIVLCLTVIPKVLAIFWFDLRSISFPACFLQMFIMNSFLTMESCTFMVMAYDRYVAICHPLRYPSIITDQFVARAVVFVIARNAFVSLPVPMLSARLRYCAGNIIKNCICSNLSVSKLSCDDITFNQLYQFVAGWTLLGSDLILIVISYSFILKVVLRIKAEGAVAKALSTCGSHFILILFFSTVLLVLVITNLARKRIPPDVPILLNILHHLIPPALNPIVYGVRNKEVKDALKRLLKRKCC
Protocol: Activation of OR56A4 by acids of different chain length was further tested. […] Replacing the wild-type with the C-terminal sequence of the functional OR51E1 did reduce activity. However, using the optimized sequence form Examples 1-5 led to a strong signal and much lower detection threshold upon addition of all three acids.
These two improvements were further combined and the combination was tested on OR52A5 and two further class I receptors. […] In the case of OR52A4, 4-ethyloctanoic acid, which is detected at low concentrations by the human nose, is detected with a high luciferase response already at 0.19 μM by the receptor with the C-terminal modification showing very sensitive detection of this carboxylic acid by the modified class I receptor.

Fold-improvement potency (OR56A4; changed C-term. vs wild-type)	pEC50 (OR56A4; wild-type)	activation of the wild-type (OR56A4)	SMILES	EC2 (concentration for 2-fold luciferase induction) (OR10J1(M51I, I92M))	EC10, concentration for 10-fold OR activation (OR10A3)	EC2 (concentration for 2-fold luciferase induction) [1]	EC2 (concentration for 2-fold luciferase induction) (OR2J2)	EC2 (concentration for 2-fold luciferase induction) (OR2AP1)
–	–	–	CCCCCCCCC1CCC(=O)O1 (stereo not shown) [Dodecalactone gamma]	5.31 µM	0.85 μM	0.48 µM	1.41 µM	1.31 µM
–	–	–	CC1=CCC(C(C)CC2CCCC2=O)CC1 (stereo not shown) [Nectaryl]	–	2.32 μM	1.12 µM	inactive	19.72 µM
–	–	–	CCCCCC1CCC(=O)O1 (stereo not shown) [Nonalactone gamma]	11.14 µM	2.83 μM	11.34 µM	12.85 µM	–
–	–	–	CCCCC1CCC(=O)O1 (stereo not shown) [Octalactone gamma]	101.73 µM	26.93 μM	–	65.20 µM	–
–	–	–	CCCCCCCC1CCC(=O)O1 (stereo not shown) [Undecalactone gamma]	2.11 µM	0.28 μM	0.34 µM	0.71 µM	6.53 µM
5.1	3.94	activated at high concentration	CCCCCCCCCCC(=O)O [Undecanoic acid]	–	–	–	–	–
–	–	activated at high concentration	CCCCCCCCCC(=O)O [decanoic acid]	–	–	–	–	–

From patent US20260210939A1, “MODIFIED OLFACTORY RECEPTORS” (GIVAUDAN SA, priority 2022, published 2026)
